Results published in PubChem BioAssay AID652253 (Vanderbilt Specialized Chemistry Center, 2013).
The source made the active and inactive calls. The rule behind the calls is not given here.

The molecules below were run against Proteinase-activated receptor 4 (Homo sapiens) (UniProt Q96RI0) (assay: PAR4 antagonist concentration-response, dose response, cell-based, CRC (AID 652253)). Conditions: cells, PAR4-AP induced response.
Chain of Proteinase-activated receptor 4 (Homo sapiens) (Q96RI0 whole entry, looked up): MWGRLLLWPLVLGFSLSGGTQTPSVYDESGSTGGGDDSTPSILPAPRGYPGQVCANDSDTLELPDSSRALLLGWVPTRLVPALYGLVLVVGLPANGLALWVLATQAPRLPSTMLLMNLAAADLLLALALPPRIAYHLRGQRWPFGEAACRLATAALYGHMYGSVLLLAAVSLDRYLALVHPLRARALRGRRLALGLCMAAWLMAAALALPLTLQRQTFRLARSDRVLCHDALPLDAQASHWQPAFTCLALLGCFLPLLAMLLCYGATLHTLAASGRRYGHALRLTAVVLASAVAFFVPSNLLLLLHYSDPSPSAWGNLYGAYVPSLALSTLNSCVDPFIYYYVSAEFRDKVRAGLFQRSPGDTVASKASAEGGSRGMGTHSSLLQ
`COc1ccc(-c2cn(Cc3cccc(Cl)c3)c3ccccc23)cn1` was tested, and the IC50 was “inactive”. For `COc1ccc(-c2cn(Cc3cccc(F)c3)c3ccccc23)cn1`, the IC50 was “inactive”. In the case of `COc1ccc(-c2cn(Cc3ccccc3)c3ccccc23)cn1`, the IC50 is reported as “inactive”. With `COc1ccc(-c2cn(Cc3cccc(Br)c3)c3ccccc23)cn1` the IC50 was “inactive”. `COc1ccc(COc2ccc(C(=O)NCCC(C)(C)C)cc2)cc1` gave an IC50 of 139 nM.

Same assay, conditions: cells, PAR4-AP induced response, at 10 µM (top of the series)
In the case of `COc1ccc(-c2cn(Cc3ccccc3)c3ccccc23)cc1`, the “% PAR4-AP response remaining” value is reported as “inactive”. For `COc1ccc(-c2cn(Cc3cccc(S(C)(=O)=O)c3)c3ccccc23)cn1`, the “% PAR4-AP response remaining” value was “inactive”. With `Fc1ccc(-c2cn(Cc3ccccc3)c3ccccc23)cn1` the “% PAR4-AP response remaining” value was “inactive”.
